Our source for the Ki and inhibition values is patent publication US5536853A, “Opiate receptor ligands” (Chiron Corporation, priority 1994, dated 1996).

The Ki is the equilibrium dissociation constant of an inhibitor or competing ligand from its target. As usually defined, the inhibition is the relative decrease from the control value, in per cent. High values mean a response far below the control, low ones a response near the control.

For one experiment, the target named is T1, μ-specific opiate receptor (Rattus norvegicus, UniProt P33535).
T1 construct: Rat forebrains were homogenized and washed; from tissue; host or cells: rat forebrain membranes
T1 sequence (P33535 whole entry): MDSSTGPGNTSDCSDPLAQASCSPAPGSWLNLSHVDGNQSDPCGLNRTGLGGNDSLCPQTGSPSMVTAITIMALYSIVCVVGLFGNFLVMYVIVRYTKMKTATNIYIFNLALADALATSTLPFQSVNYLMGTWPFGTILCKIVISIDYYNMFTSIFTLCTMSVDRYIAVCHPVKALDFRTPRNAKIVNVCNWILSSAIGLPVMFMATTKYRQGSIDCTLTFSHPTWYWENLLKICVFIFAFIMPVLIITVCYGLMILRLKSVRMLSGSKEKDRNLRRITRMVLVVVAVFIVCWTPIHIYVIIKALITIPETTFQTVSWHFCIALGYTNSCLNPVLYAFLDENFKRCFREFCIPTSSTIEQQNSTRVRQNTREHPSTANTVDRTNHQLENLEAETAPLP
The experiment in a line: in vitro solution-phase radioligand competition assay ([3H]-DAMGO, rat forebrain membranes). The following applies: 1 nM [3H]-DAMGO, pH 7.5, 1 hr room temperature. The format is binding. As to the method: Compounds were screened in vitro using the following assay:
High-affinity ligands for the μ-specific opiate receptor were identified from a diverse peptoid library by testing the pools of compounds in solution-phase radioligand competition assays, and tracing the binding activity to individual compounds by iterative resynthesis and screening of smaller sub-pools.
Rat forebrains were homogenized and washed in 50 mM Tris, pH 7.5 containing 20 mM NaCl, 5 mM EGTA, 2 mM MgCl2, 21 μg/mL aprotinin, 0.5 mg/L leupeptin, 0.7 mg/L pepstatin, 0.2 Mm PMSF. 50 μL of membrane (10 mg/mL protein) were dispensed into 1 mL of 50 mM Tris, pH 7.5, 1 nM [^3 H]-DAMGO and the peptoid mixture. All assays were performed at 100 nM per peptoid.
Nonspecific binding was determined as [^3 H]-DAMGO bound in the presence of 1 μM naloxone. Incubation was for 1 hr at room temperature. Unbound radioactivity was removed by rinsing the membranes on Whatman GF/B glass fiber filters. Each filter was washed 3 times with 3 mL of 50 mM Tris, pH 7.5, 4° C. Filters were soaked overnight in 5 mL of Beckman ReadySafe scintillation cocktail and then counted for one minute in a Wallac 1409 liquid scintillation counter. Assays were performed in duplicate.
On the technique in general: Loss of bound radioactivity is the signal in a displacement assay; it reports binding, not function.
Consider `COc1ccc(CN(CC(=O)N(CCc2ccc(O)cc2)CC(N)=O)C(=O)CNCC(c2ccccc2)c2ccccc2)cc1OC` [CHIR-4537, Nbhm-Nddb-Nhtyr], for which the inhibition constant Ki is 0.045 µM. Compound `NC(=O)CN(CCc1ccc(O)cc1)C(=O)CN(Cc1ccc2c(c1)OCO2)C(=O)CNCC(c1ccccc1)c1ccccc1` [CHIR-4531, Nbhm-Nmdb-Nhtyr] yielded an inhibition constant Ki of 0.007 µM. `CCCCCN(CC(=O)N(CCc1ccc(O)cc1)CC(N)=O)C(=O)CNCC(c1ccccc1)c1ccccc1` [CHIR-4534, Nbhm-Npen-Nhtyr] displayed an inhibitory constant (Ki) of 0.03 µM.

Staying with this experiment, now noted: at 100 nM, 1 nM [3H]-DAMGO, pH 7.5, 1 hr room temperature.
The compound `NC(=O)CN(CCc1ccc(O)cc1)C(=O)CN(Cc1ccccc1)C(=O)CNCC(c1ccccc1)c1ccccc1` [CHIR 4627, Nbhm-Nphe-Nhtyr] showed an inhibition at 0.1 µM of 90%. Same read-out and setting: as for `NC(=O)CN(CCc1ccccc1)C(=O)CN(Cc1ccccc1)C(=O)CNCC(c1ccccc1)c1ccccc1` [CHIR 4628, Nbhm-Nphe-Nhphe], the figure is 77%. In the case of `CC(NCC(c1ccccc1)c1ccccc1)C(=O)N(CC(=O)N(CCc1ccc(O)cc1)CC(N)=O)Cc1ccc2c(c1)OCO2` (stereo not shown) [CHIR 5052, Nbha-Nmdb-Nhtyr], the inhibition at 0.1 µM amounted to 73%. Still for that read-out and setting: as for `COc1cc(CN(CC(=O)N(CCc2ccc(O)cc2)CC(N)=O)C(=O)CNCC(c2ccccc2)c2ccccc2)cc(OC)c1OC` [CHIR 4626, Nbhm-Ntrnb-Nhtyr], the figure is 86%; as for `NC(=O)CN(CCc1ccc(O)cc1)C(=O)CN(Cc1ccc2c(c1)OCO2)C(=O)C=CCNCC(c1ccccc1)c1ccccc1` [CHIR 5045, Nvbhm-Nmdb-Nhtyr], 58%. Compound `NC(=O)CN(CCc1ccc(O)cc1)C(=O)CN(Cc1ccc2c(c1)OCO2)C(=O)CNCCC(c1ccccc1)c1ccccc1` [CHIR 4622, Nbhe-Nmdb-Nhtyr] gave an inhibition at 0.1 µM of 78%. On the same count and under the same terms, next, `NC(=O)CN(CCc1ccc(O)cc1)C(=O)CN(Cc1ccc2c(c1)OCO2)C(=O)CNCC=C(c1ccccc1)c1ccccc1` [CHIR 5062, Nbvp-Nmdb-Nhtyr]: 65%.
